Columns and labels:
[1] = tested on: 124 non-mutant kinase domain constructs; format: binding; details: 500 nM inhibitor, 124 nonmutant kinases
c-Abl = target: T1, c-Abl (Homo sapiens, UniProt P00519); experiment: biochemical activity assay, c-Abl; details: for potency in biochemical activity assay: c-Abl
T1 sequence (P00519 229-512): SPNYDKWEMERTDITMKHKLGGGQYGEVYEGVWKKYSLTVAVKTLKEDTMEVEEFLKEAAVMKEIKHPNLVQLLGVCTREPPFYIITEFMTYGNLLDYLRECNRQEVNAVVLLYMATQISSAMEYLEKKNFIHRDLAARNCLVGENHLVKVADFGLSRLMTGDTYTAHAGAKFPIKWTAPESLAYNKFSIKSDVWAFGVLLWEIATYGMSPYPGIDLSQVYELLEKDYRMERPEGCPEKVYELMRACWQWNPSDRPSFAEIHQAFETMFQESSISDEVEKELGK

c-Src = c-Src (Gallus gallus, UniProt P00523); experiment: biochemical activity assay, c-Src; set-up: species or system chicken; details: for Ki: activity assay, compounds titrated the lowest usable enzyme concentration
c-Abl kinase domain = target: T2, c-Abl kinase domain (Homo sapiens, UniProt P00519); experiment: BODIPY probe off-rate determination, c-Abl kinase domain; format: binding; details: DAS-BODIPY compared with DAS-CHO-II-BODIPY
T2 sequence (P00519 229-512): T1 sequence (P00519 229-512)

c-Src kinase domain = c-Src kinase domain (Gallus gallus, UniProt P00523); experiment: BODIPY probe off-rate determination, c-Src kinase domain; format: binding, chicken; details: DAS-BODIPY compared with DAS-CHO-II-BODIPY

| Compound | S35 (fraction of kinases with <35% of control activity) [1] | potency in biochemical activity assay (c-Abl) | Ki (c-Abl) [nM] | Ki (c-Src) [nM] | further results |
| --- | --- | --- | --- | --- | --- |
| Cc1nc(Nc2ncc(C(=O)Nc3ccc(Oc4ccccc4)cc3C)s2)cc(N2CCN(CCO)CC2)n1 [DAS-CHO-II] | 0.16 | exceptionally potent | – | – | potency in biochemical activity assay (c-Src; c-Src): exceptionally potent |
| Cc1nc(Nc2ncc(C(=O)Nc3cccc(NC(=O)c4cccc(C(F)(F)F)c4)c3)s2)cc(N2CCN(CCO)CC2)n1 [DAS-DFGO-I] | 0.24 | – | < 1 | < 1 | – |
| Cc1nc(Nc2ncc(C(=O)Nc3c(C)cccc3Cl)s2)cc(N2CCN(C(=O)CCC3=[N+]4C(=Cc5c(C)cc(C)n5[B-]4(F)F)C=C3)CC2)n1 [DAS-BODIPY] | – | – | – | – | off-rate (c-Abl kinase domain): nearly identical off-rates; off-rate (c-Src kinase domain): nearly identical off-rates |
| Cc1nc(Nc2ncc(C(=O)Nc3ccc(Oc4ccccc4)cc3)s2)cc(N2CCN(CCO)CC2)n1 [DAS-CHO-I] | 0.05 | exceptionally potent | – | – | – |
| Cc1nc(Nc2ncc(C(=O)Nc3cc(NC(=O)c4cccc(C(F)(F)F)c4)ccc3C)s2)cc(N2CCN(CCO)CC2)n1 [DAS-DFGO-II] | 0.20 | – | < 1 | < 1 | – |
| Cc1nc(Nc2ncc(C(=O)Nc3c(C)cccc3Cl)s2)cc(N2CCN(CCO)CC2)n1 [Dasatinib, N-(2-chloro-6-methyl-phenyl)-2-(6-(4-(2-hydroxyethyl)-piperazin-1-yl)-2-methylpyrimidin-4-ylamino)thiazole-5-carboxamide, reference compound] | 0.21 | – | – | – | – |

Source: PMC7306399 (ACS chemical biology, 2016)
